Earlier results on 7 compounds are cited in patent US7858659B2, “Redox therapy for tumors” (priority 2003, dated 2010).

For orientation: Solubility means the dissolved amount per volume that the medium holds.

Converted amounts (≈) assume the structure as drawn. Read-outs that look alike come from different tables or passages of the source.

One data set deals with U937 cancer cells. Particulars: Lizard et al. 1998; cited from earlier work.
Data set [1] relates to prostate cancer cell lines. The note with it: green tea phenols; cited from earlier work.
In data set [2] the test system is malignant cells. Particulars: cited from earlier work; for Effective Concentration in vitro: Example 4 table; for Concentration: Table 1.
The subject of data set [3] is malignant cells. The note with it: Table 1; BSO: [Kito]; cited from earlier work.
The conditions of data set [4]: cited from earlier work; for Solubility: Example 4 table.
For data set [5] the following is noted: Example 4 table; cited from earlier work.
A further data set deals with mice. The note with it: mouse, in vivo; cited from earlier work.
The next data set relates to adults. The note with it: cited from earlier work.
A further data set has as its system neuroblastoma cells. Particulars: Nicole et al. 1998; cited from earlier work.
The test system of data set [6] is malignant cells. The note with it: BSO by itself; Dai et al. 1999; cited from earlier work.
A further data set has as its system mice/rats. Particulars: cited from earlier work.
Data set [7] addresses T1, glutathione reductase (GR) (Mus musculus, UniProt P47791).
T1 construct: recovery of enzyme activity in exponentially growing murine leukemia (L1210) cells treated with 1,3-bis(2-chloroethyl)-1-nitrosourea
T1 sequence (P47791 27-500): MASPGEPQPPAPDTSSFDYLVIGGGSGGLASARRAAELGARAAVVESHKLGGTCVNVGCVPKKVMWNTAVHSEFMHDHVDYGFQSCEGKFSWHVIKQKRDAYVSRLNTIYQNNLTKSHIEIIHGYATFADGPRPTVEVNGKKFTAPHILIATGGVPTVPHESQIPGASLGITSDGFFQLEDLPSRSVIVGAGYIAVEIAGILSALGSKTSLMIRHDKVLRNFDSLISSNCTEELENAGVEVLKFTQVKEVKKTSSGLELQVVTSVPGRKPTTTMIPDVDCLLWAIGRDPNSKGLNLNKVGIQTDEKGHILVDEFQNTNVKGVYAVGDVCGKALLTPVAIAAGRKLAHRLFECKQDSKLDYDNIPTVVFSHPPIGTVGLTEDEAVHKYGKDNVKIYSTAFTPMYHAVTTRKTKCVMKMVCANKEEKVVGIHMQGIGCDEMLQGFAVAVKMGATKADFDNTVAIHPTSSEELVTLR
Particulars: Cohen 1988, cited from earlier work.

The next data set deals with rats. The note with it: cited from earlier work.
The test system of data set [8] is normal human bronchial fibroblasts and human bronchial epithelial cells. The note with it: cited from earlier work.
The next data set deals with A-427 and A-172. The note with it: various cancer cell lines, such as A-427 and A-172; cited from earlier work.
In data set [9] the test system is Jurkat T-cell leukemia cells. The note with it: Sen et al. 1999; cited from earlier work.
The subject of a further data set is normal lymphocytes. The note with it: Sen et al. 1999; cited from earlier work.

Consider `CC(C)CCC[C@@H](C)[C@H]1CC[C@H]2[C@@H]3C(=O)C=C4C[C@@H](O)CC[C@]4(C)[C@H]3CC[C@]12C` [7-ketocholesterol], for which the apoptosis result with U937 cancer cells is “induced apoptosis”.

Consider `O=C(O[C@@H]1Cc2c(O)cc(O)cc2O[C@@H]1c1cc(O)c(O)c(O)c1)c1cc(O)c(O)c(O)c1` [(−)-epigallocatechin-3-gallate], for which, in data set [1], the apoptosis entry is given as “induced apoptosis”.

As to `CCCCS(=N)(=O)CCC(N)C(=O)O` (stereo not drawn) [BSO, buthionine sulfoximine], the “Effective Concentration in vitro” value in the data set on malignant cells [2] was 100 µM. In addition, the Concentration in the data set with malignant cells [2] (disulfiram: [Cen]) is 10 to 25 µM. For the same compound, the apoptosis entry in the data set on malignant cells [3] was “Enhancement [Kito]”; in the data set with neuroblastoma cells, “induced apoptosis”; with malignant cells [6] it was “did not induce significant apoptosis”. In [4], the Solubility result is on record as “soluble”. In addition, the “Solubility [Merck]” value in data set [4] (Table 1, in words) is “Soluble”. In addition, the Toxicity in data set [5] was 10,000 microM; with mice it was 9.6 g/kg (mice) →. The “Toxicity: nausea/vomiting” value with adults ([Bailey]) was “occasional”. In addition, the “decrease of GSH content” value in the data set with neuroblastoma cells is listed as 98%. Besides, the “decrease in [GSH] in the cell” value with malignant cells [6] is on record as 70%.

With `O=NN(CCCl)C(=O)NCCCl` [Carmustine, N,N′-bis(2-chloroethyl)-N-nitrosourea], the “LD50 [Merck]” value with mice/rats was 25 to 30 mg/kg. Further, in the data set with malignant cells [2], the “Effective Concentration in vitro” value was 0.05 µM. In the data set on malignant cells [2] ([Cohen & Duval]), the Concentration was 50 ng/mL. In addition, the apoptosis result in the data set on malignant cells [3] is on record as “Induction”. The Solubility in [4] was 40 µM (≈ 8.56 µg/mL). Also, the “Solubility [Merck]” value in [4] (Table 1) is 4 mg/L (≈ 18.7 µM). For the same compound, the “activity of GR restored” value in data set [7] (12 hours, de novo synthesis) is reported as 50%. Also, in [7] (24 hours, de novo synthesis), the GR restored is given as 70%. Moreover, the “concentration with which GR is inhibited” value in data set [7] (only carmustine present) is 10 µM. Also, in data set [7] (with 10 μM), the “time within which GR is inhibited” value is listed as “½”.

In the case of `CCN(CC)C(=S)SSC(=S)N(CC)CC` [Disulfiram], in data set [4], the Solubility is on record as 2,000 microM. Also, in data set [4] (Table 1), the “Solubility [Merck]” value is reported as 0.02 g/100 ml. Also, the Toxicity in data set [5] is 10,000 microM; with adults (adults), 3 g (adults). Moreover, in the data set on rats, the “LD50 [Merck]” value is 8600 mg/kg (rats).

As for `C=CC=O` [acrolein], the “toxicity to normal cells” value in data set [8] is recorded as “highly toxic”. Further, the cytotoxicity entry with A-427 and A-172 is recorded as “induced cytotoxicity”.

With `O=C(O)CCCCC1CCSS1` (stereo not drawn) [α-lipoic acid], the figures for the apoptosis result (in data set [9]; with normal lymphocytes) were “underwent apoptosis” and “did not”, respectively.
